Results published in PMC12143354, “Determining sex differences in aortic valve myofibroblast responses to drug combinations identified using a digital medicine platform” (Science Advances, 2025).
Where two headings read alike, the source gives them in different places.

What was measured:
male VICs [1] = test: percent αSMA GMI reduction by immunofluorescent staining, male VICs on TCPS; type: cell-based, pig
Protocol: (§1) VICs were collected by aspirating off spent media, washing with PBS (Sigma-Aldrich) for 1 min, then incubating with 1× trypsin (Life Technologies) for 3 min. Trypsin was neutralized with an equal volume of 15% FBS growth media and centrifuged for 5 min at 0.2g. The media solution was then aspirated, and VICs were resuspended with 1 ml of 1% FBS media. VICs were counted with an automated hemocytometer to calculate the volume of cell solution to add to each well to seed at 6400 cells per well (20,000 cells/cm^2) for TCPS and hydrogel experiments. […] For each inhibitor, the nonlinear regression tool in Prism was used to estimate the response against the agonist by fitting the top, bottom, EC50/CC50, and hillslope to each dataset.

female VICs [2] = test: percent αSMA GMI reduction by immunofluorescent staining, female VICs on TCPS; type: cell-based, pig
Protocol: as §1

male VICs [3] = test: percent αSMA GMI reduction, male VICs on stiff hydrogels; type: cell-based, pig; conditions: male VICs; for Percent αSMA reduction, Average: n = 3-4 gels
Protocol: (§2) Glass-bottom 96-well plates (Cellvis) were placed in an autoclave jar with a scintillation vial containing 100 μl of mercaptopropyltrimethoxysilane (MPTS; Sigma-Aldrich). The autoclave jar was then lightly sealed and placed inside an oven at 60°C for a minimum of 6 hours. The autoclave jar was opened in a chemical fume hood, and the vapor-deposited well plate was stored for up to 2 hours until ready for use. Eight-arm 20-kDa PEG-norbornene (PEG-Nb) was formed as outlined previously ([76]). A 7% (w/v) PEG-Nb hydrogel precursor solution was formed by combining phosphate-buffered saline (PBS), 20-kDa PEG-Nb at a 0.98:1 thiol-to-ene ratio, 5-kDa PEG-dithiol (Jenkem), CRGDS cell binding motif (Bachem), and lithium phenyl-2,4,6-trimethyl-benzoylphosphinate (Thermo Fisher Scientific). An EPMotion 5073l automated liquid handling system (Eppendorf) was used to pipet 7 μl of the hydrogel precursor solution into the center of each well of the vapor-deposited 96-well glass-bottom plate. The well plate with the hydrogel precursor solution was then stamped using a custom 96-well plate stamp, inverted, and cured under ultraviolet light at 10 mW/cm^2 for 3 min to induce gelation. The stamp was carefully removed by hand, and the newly formed gels were sterilized with a solution of 5% isopropyl alcohol (Thermo Fisher Scientific) in PBS for 20 min. Gels were then washed twice with PBS and stored in VIC media composed of Media199 (Life Technologies), 1% fetal bovine serum (FBS, Life Technologies), amphotericin B (1 μg/ml; Thermo Fisher Scientific), penicillin (50 U/ml; Sigma-Aldrich), and streptomycin (50 μg/ml; Sigma-Aldrich). Last, the hydrogels were placed in an incubator at 37°C with 5% carbon dioxide for up to 24 hours until experimental use.
(§3) Media changes were performed every 24 to 48 hours until cells reached ~80% confluency. […] The media solution was then aspirated, and VICs were resuspended with 1 ml of 1% FBS media. VICs were counted with an automated hemocytometer to calculate the volume of cell solution to add to each well to seed at 6400 cells per well (20,000 cells/cm^2) for TCPS and hydrogel experiments. For all experiments, VICs were seeded with 1% FBS media containing the specified drug doses and incubated at 37°C with 5% carbon dioxide with media changes every 48 to 72 hours if needed.
(§4) Drug stock solutions were discarded after two thaw cycles or after 10 months of storage. For all experiments, drug dilutions were calculated and added to VIC media to ensure that total DMSO levels remained below 1% for cytotoxicity and αSMA reduction curve fitting experiments and below 0.3% for drug combination experiments.
(§5) After culture on hydrogels or TCPS, the spent drug-containing media were removed, and VICs were immersed in a 4% paraformaldehyde solution in PBS for 20 min and then permeabilized for 1 hour with 0.1% Triton X-100 (Thermo Fisher Scientific) in PBS. Cells were then blocked with 5% bovine serum albumin in PBS for 1 hour at room temperature or over the weekend at 4°C. […] Last, VICs were washed once with PBS and then stored in PBS at 4°C until imaging. Gel samples were imaged in situ using a Nikon Eclipse Ti2-E and analyzed using an automated MATLAB code to quantify the αSMA gradient mean intensities and caspase-3 intensities normalized to cell mask for each cell. A minimum of 100 cells were used per gel with multiple gels used per condition.
(§6) Curve fitting for VIC percent αSMA reduction and cytotoxicity was performed using GraphPad Prism 10 (GraphPad Software Inc). For each inhibitor, the nonlinear regression tool in Prism was used to estimate the response against the agonist by fitting the top, bottom, EC50/CC50, and hillslope to each dataset. After 2 days of culture, the percent αSMA reduction was calculated using the average αSMA gradient mean intensities of the control relative to the drug condition using Eq. 1 %αSMA reduction=100×(Control−Drug Condition/Control) (1)

female VICs [4] = test: percent αSMA GMI reduction, female VICs on stiff hydrogels; type: cell-based, pig; conditions: for Percent αSMA reduction, Average: n = 3-4 gels
Protocol: as §2, §3, §4, §5, §6

male VICs [5] = test: percent αSMA GMI reduction, male VICs on soft hydrogels; type: cell-based, pig; conditions: single drug at L2 dose, n = 3 gels
Excerpt: (§7) Last, we tested the ability of […]-designed combinations to prevent myofibroblast activation in VICs cultured on other substrates beyond stiff hydrogels. […] Six male-optimized combinations were effective in preventing male VIC myofibroblast activation (Fig. 7K). […] Single-drug monotherapies used in the top male and female drug combinations were confirmed to have a minimal effect on male and female VIC αSMA GMI on soft hydrogels (table S14). […] After aspirating off the spent media, VICs were resuspended in 5 ml of fresh 15% FBS media and seeded on T25 Falcon tissue culture-treated flasks (Thermo Fisher Scientific). […] VICs were collected by aspirating off spent media, washing with PBS (Sigma-Aldrich) for 1 min, then incubating with 1× trypsin (Life Technologies) for 3 min. Trypsin was neutralized with an equal volume of 15% FBS growth media and centrifuged for 5 min at 0.2g. The media solution was then aspirated, and VICs were resuspended with 1 ml of 1% FBS media. VICs were counted with an automated hemocytometer to calculate the volume of cell solution to add to each well to seed at 6400 cells per well (20,000 cells/cm^2) for TCPS and hydrogel experiments. […] For each inhibitor, the nonlinear regression tool in Prism was used to estimate the response against the agonist by fitting the top, bottom, EC50/CC50, and hillslope to each dataset.

female VICs [6] = test: percent αSMA GMI reduction, female VICs on soft hydrogels; type: cell-based, pig; conditions: single drug at L1 dose, n = 3 gels
Excerpt: as §7

female VICs [7] = tested on: female VICs
Protocol: as §5
(§8) Percent cytotoxicity was determined by designating each cell as alive or dead using caspase-3 intensity normalized to cell mask intensity, which was thresholded using a positive and negative control for cell death [10 nM staurosporine (Cell Signaling Technologies) or 1% FBS media]. The bottom value for every curve fit was set to 0, and the top value was constrained to a maximum of 100 to indicate the maximum possible effect of the drug. […] Absolute EC and CC values for % αSMA reduction and percent cytotoxicity were quantified using the top, bottom, EC50/CC50, and hillslope values estimated from the curve fits generated in GraphPad Prism (GraphPad Software Inc).

male VICs [8] = tested on: male VICs
Protocol: as §5, §8

[9] = ref (79) Irosustat, (80) Losartan, cited from earlier work
[10] = female VICs, stiff hydrogels, from dose response curves
[11] = male VICs, stiff hydrogels, from dose response curves

SMILES: NS(=O)(=O)Oc1ccc2c3c(c(=O)oc2c1)CCCCC3 [Irosustat]
- reduction in αSMA GMI, initial screen (male VICs [1]; male VICs on TCPS, dosing range 10^-7 to 10^3 μM): > 25%
- Percent αSMA reduction, Average (male VICs [1]; male VICs, TCPS, single drug at L2 dose, n = 3 wells): -1.15%
- reduction in αSMA GMI, initial screen (female VICs [2]; female VICs on TCPS, dosing range 10^-7 to 10^3 μM): > 25%
- Percent αSMA reduction, Average (female VICs [2]; female VICs, TCPS, single drug at L1 dose, n = 3 wells): 1.88%
- EC1 (male VICs [3]; from dose response curves): 92.6 µM
- EC2 (male VICs [3]; from dose response curves): 106.3 µM
- Percent αSMA reduction, Average (male VICs [3]; single drug at level 1 dose): 0.84%
- Percent αSMA reduction, Average (male VICs [3]; single drug at level 2 dose): 0.67%
- EC1 (female VICs [4]; from dose response curves): 74.4 µM
- EC2 (female VICs [4]; from dose response curves): 84.7 µM
- Percent αSMA reduction, Average (female VICs [4]; single drug at level 1 dose): 9.62%
- Percent αSMA reduction, Average (female VICs [4]; single drug at level 2 dose): -0.55%
- Percent αSMA reduction, Average (male VICs [5]): -10.38%
- Percent αSMA reduction, Average (female VICs [6]): 4.80%
- CC25 (percent cytotoxicity) (female VICs [7]; female VICs on stiff gels, n = 3 gels): 109 µM
- CC1 (female VICs [7]; [10]): 50.2 µM
- CC2 (female VICs [7]; [10]): 57.9 µM
- CC25 (percent cytotoxicity) (male VICs [8]; male VICs on stiff gels, n = 3 gels): 125 µM
- CC1 (male VICs [8]; [11]): 48.5 µM
- CC2 (male VICs [8]; [11]): 58.7 µM
- Cmax ([9]; read-out: 5% Cmax, 5% of Cmax from FDA documents and clinical studies): 10.6 nM
- Cmax ([9]; read-out: 10% Cmax, 10% of Cmax from FDA documents and clinical studies): 21.2 nM
